This note sets out measurements from patent publication US20240208992A1, “MACROCYCLES AS CFTR MODULATORS” (Idorsia Pharmaceuticals Ltd, priority 2021, published 2024).

This experiment concerns the target human F508del-CFTR (Homo sapiens, UniProt P13569, DEL508-508). The experiment can be described thus: F508del-CFTR cell surface expression (corrector activity), DiscoveRx ß-galactosidase complementation chemiluminescence assay in recombinant U2OS cell line.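 For all read-outs here: U2OS cells co-expressing ProLink-tagged F508del-CFTR and a membrane-anchored enzyme acceptor, where more surface CFTR restores β-galactosidase activity measured by chemiluminescence.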 Particulars: for EC50: EC50, F508del-CFTR cell surface expression, U2OS cells, 16h compound incubation, geomean values; for Emax: U2OS, in relation to Emax of corrector lumacaftor (=100%), arithmetic mean values.

Broadly, the EC50 is the concentration at which the effect is half-maximal. One may read the Emax as the maximal effect, on the per cent scale that the assay sets.

The structures appear in SMILES notation.

human F508del-CFTR, sequence (P13569 with tags, fused parts or gaps DEL508-508): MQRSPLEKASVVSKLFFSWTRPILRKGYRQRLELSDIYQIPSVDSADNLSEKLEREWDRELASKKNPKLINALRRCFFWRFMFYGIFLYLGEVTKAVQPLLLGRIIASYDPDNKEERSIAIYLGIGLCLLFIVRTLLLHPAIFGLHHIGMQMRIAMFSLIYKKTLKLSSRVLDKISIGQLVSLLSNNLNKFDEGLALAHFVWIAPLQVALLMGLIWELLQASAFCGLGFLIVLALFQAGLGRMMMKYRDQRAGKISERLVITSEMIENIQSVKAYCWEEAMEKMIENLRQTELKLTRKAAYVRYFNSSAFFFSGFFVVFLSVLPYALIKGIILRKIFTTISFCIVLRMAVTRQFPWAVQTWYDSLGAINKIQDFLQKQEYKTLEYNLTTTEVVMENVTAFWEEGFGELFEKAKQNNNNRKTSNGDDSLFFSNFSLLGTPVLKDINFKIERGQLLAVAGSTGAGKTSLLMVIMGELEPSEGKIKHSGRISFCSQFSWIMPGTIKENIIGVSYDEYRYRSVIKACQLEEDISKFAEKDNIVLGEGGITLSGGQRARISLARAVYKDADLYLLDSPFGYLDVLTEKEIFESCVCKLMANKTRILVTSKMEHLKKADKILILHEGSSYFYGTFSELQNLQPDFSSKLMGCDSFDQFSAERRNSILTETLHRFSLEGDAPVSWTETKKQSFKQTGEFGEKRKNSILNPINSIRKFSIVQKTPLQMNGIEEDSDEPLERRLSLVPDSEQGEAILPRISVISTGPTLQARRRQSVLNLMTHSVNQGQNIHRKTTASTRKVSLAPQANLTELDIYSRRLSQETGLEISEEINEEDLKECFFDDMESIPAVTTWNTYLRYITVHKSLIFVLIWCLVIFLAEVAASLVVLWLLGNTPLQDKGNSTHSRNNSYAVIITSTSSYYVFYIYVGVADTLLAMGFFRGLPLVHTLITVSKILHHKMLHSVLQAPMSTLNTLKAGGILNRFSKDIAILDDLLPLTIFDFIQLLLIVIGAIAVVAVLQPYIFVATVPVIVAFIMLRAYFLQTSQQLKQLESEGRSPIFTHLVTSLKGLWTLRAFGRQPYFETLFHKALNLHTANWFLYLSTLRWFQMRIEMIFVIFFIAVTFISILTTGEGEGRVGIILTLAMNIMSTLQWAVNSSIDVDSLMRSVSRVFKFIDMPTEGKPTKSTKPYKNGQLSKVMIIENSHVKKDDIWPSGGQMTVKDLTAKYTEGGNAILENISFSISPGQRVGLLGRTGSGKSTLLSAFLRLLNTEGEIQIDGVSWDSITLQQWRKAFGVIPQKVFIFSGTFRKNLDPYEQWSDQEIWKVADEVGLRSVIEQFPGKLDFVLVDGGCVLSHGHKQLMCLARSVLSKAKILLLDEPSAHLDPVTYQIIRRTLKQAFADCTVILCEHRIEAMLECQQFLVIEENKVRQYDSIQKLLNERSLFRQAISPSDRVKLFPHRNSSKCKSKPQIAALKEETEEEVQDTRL

For `CC(C)C[C@H]1C(=O)N2CCCC[C@@H]2C(=O)N[C@H](Cc2ccccc2)COc2cnc3c(F)cccc3c2C(=O)N[C@H](C(=O)NCCc2cc(C3CC3)on2)CC(=O)N1C` [Example 638, (9S,13S,19aR,22R)-22-benzyl-N-(2-(5-cyclopropylisoxazol-3-yl)ethyl)-3-fluoro-13-isobutyl-12-methyl-7,11,14,20-tetraoxo-7,8,9,10,11,12,13,14,17,18,19,19a,20,21,22,23-hexadecahydro-16H-pyrido[2′,11:6,7][1]oxa[4,7,10,14]tetraazacycloheptadecino[17,16-c]quinoline-9-carboxamide], the EC50 is 182 nM and the Emax came to 297%.
For `CC(C)C[C@H]1C(=O)N2CCCC[C@@H]2C(=O)N[C@H](Cc2ccccc2)COc2cnc3ccc(F)cc3c2C(=O)N[C@H](C(=O)NCCc2cc(C3CC3)on2)CC(=O)N1C` [Example 639, (9S,13S,19aR,22R)-22-benzyl-N-(2-(5-cyclopropylisoxazol-3-yl)ethyl)-5-fluoro-13-isobutyl-12-methyl-7,11,14,20-tetraoxo-7,8,9,10,11,12,13,14,17,18,19,19a,20,21,22,23-hexadecahydro-16H-pyrido[2′,1′:6,7][1]oxa[4,7,10,14]tetraazacycloheptadecino[17,16-c]quinoline-9-carboxamide], the EC50 was determined as 173 nM and the Emax was determined as 305%.
With `CC(C)C[C@H]1C(=O)N2CCCC[C@@H]2C(=O)N[C@H](Cc2ccccc2)COc2cnc3ccc(F)cc3c2C(=O)N[C@H](C(=O)NCCc2cc(C3CC3)no2)CC(=O)N1C` [Example 640, (9S,13S,19aR,22R)-22-benzyl-N-(2-(3-cyclopropylisoxazol-5-yl)ethyl)-5-fluoro-13-isobutyl-12-methyl-7,11,14,20-tetraoxo-7,8,9,10,11,12,13,14,17,18,19,19a,20,21,22,23-hexadecahydro-16H-pyrido[2′,11:6,7][1]oxa[4,7,10,14]tetraazacycloheptadecino[17,16-c]quinoline-9-carboxamide], the EC50 was found to be 132 nM and the Emax was 339%.
As for `CC(C)C[C@H]1C(=O)N2CCCC[C@@H]2C(=O)N[C@H](Cc2ccccc2)COc2cnc3ccc(F)cc3c2C(=O)N[C@H](C(=O)NCCc2nc(C3CC3)no2)CC(=O)N1C` [Example 641, (9S,13S,19aR,22R)-22-benzyl-N-(2-(3-cyclopropyl-1,2,4-oxadiazol-5-yl)ethyl)-5-fluoro-13-isobutyl-12-methyl-7,11,14,20-tetraoxo-7,8,9,10,11,12,13,14,17,18,19,19a,20,21,22,23-hexadecahydro-16H-pyrido[2′,1′:6,7][1]oxa[4,7,10,14]tetraazacycloheptadecino[17,16-c]quinoline-9-carboxamide], the EC50 worked out at 87 nM and the Emax is 305%.
The matching figures for `CC(C)C[C@H]1C(=O)N2CCCC[C@@H]2C(=O)N[C@H](Cc2ccccc2)COc2cnc3ccccc3c2C(=O)N[C@H](C(=O)NCCc2cc(C3CC3)no2)CC(=O)N1C` [Example 642, (9S,13S,19aR,22R)-22-benzyl-N-(2-(3-cyclopropylisoxazol-5-yl)ethyl)-13-isobutyl-12-methyl-7,11,14,20-tetraoxo-7,8,9,10,11,12,13,14,17,18,19,19a,20,21,22,23-hexadecahydro-16H-pyrido[2′,1′:6,7][1]oxa[4,7,10,14]tetraazacycloheptadecino[17,16-c]quinoline-9-carboxamide]: 168 nM and 366%.
The like results for `CC(C)C[C@H]1C(=O)N2CCOC[C@@H]2C(=O)N[C@H](Cc2ccccc2)COc2cnc3ccc(F)cc3c2C(=O)N[C@H](C(=O)NCCc2cc(C3CC3)on2)CC(=O)N1C` [Example 643, (9S,13S,19aR,22R)-22-benzyl-N-(2-(5-cyclopropylisoxazol-3-yl)ethyl)-5-fluoro-13-isobutyl-12-methyl-7,11,14,20-tetraoxo-7,8,9,10,11,12,13,14,16,17,19,19a,20,21,22,23-hexadecahydro-[1,4]oxazino[3′,4′:6,7][1]oxa[4,7,10,14]tetraazacycloheptadecino[17,16-c]quinoline-9-carboxamide] were, in that order, 220 nM and 270%.
For `CC(C)C[C@H]1C(=O)N2CCOC[C@@H]2C(=O)N[C@H](Cc2ccccc2)COc2cnc3ccc(F)cc3c2C(=O)N[C@H](C(=O)NCCc2cc(C3CC3)no2)CC(=O)N1C` [Example 644, (9S,13S,19aR,22R)-22-benzyl-N-(2-(3-cyclopropylisoxazol-5-yl)ethyl)-5-fluoro-13-isobutyl-12-methyl-7,11,14,20-tetraoxo-7,8,9,10,11,12,13,14,16,17,19,19a,20,21,22,23-hexadecahydro-[1,4]oxazino[3′,4′:6,7][1]oxa[4,7,10,14]tetraazacycloheptadecino[17,16-c]quinoline-9-carboxamide], the 50% effective concentration (EC50) was 277 nM and the Emax is 270%.
For the compound `CC(C)C[C@H]1C(=O)N2CCOC[C@@H]2C(=O)N[C@H](Cc2ccccc2)COc2cnc3ccc(F)cc3c2C(=O)N[C@H](C(=O)NCCc2nc(C3CC3)no2)CC(=O)N1C` [Example 645, (9S,13S,19aR,22R)-22-benzyl-N-(2-(3-cyclopropyl-1,2,4-oxadiazol-5-yl)ethyl)-5-fluoro-13-isobutyl-12-methyl-7,11,14,20-tetraoxo-7,8,9,10,11,12,13,14,16,17,19,19a,20,21,22,23-hexadecahydro-[1,4]oxazino[3′,4′:6,7][1]oxa[4,7,10,14]tetraazacycloheptadecino[17,16-c]quinoline-9-carboxamide], the EC50 is 289 nM and the Emax is 211%.
The like results for `CCN1C(=O)C[C@@H](C(=O)NCCc2nc(C3CC3)no2)NC(=O)c2c(cnc3ccccc23)OC[C@@H](Cc2ccccc2)NC(=O)[C@H]2CCCCN2C(=O)[C@@H]1CC(C)C` [Example 646, (9S,13S,19aR,22R)-22-benzyl-N-(2-(3-cyclopropyl-1,2,4-oxadiazol-5-yl)ethyl)-12-ethyl-13-isobutyl-7,11,14,20-tetraoxo-7,8,9,10,11,12,13,14,17,18,19,19a,20,21,22,23-hexadecahydro-16H-pyrido[2′,1′:6,7][1]oxa[4,7,10,14]tetraazacycloheptadecino[17,16-c]quinoline-9-carboxamide] were, in that order, 158 nM and 201%.
As to `COc1cccc(CCNC(=O)[C@@H]2CC(=O)N(C)[C@@H](CC(C)C)C(=O)N(C)CC(=O)N[C@H](Cc3ccccc3)COc3cnc(OC)cc3C(=O)N2)c1` [Example 647, (3R,9S,13S)-3-benzyl-9-isobutyl-17-methoxy-N-(3-methoxyphenethyl)-7,10-dimethyl-5,8,11,15-tetraoxo-2,3,4,5,6,7,8,9,10,11,12,13,14,15-tetradecahydropyrido[4,3-p][1]oxa[4,7,10,14]tetraazacycloheptadecine-13-carboxamide], the EC50 worked out at 820 nM and the maximal response (Emax) came to 182%.
Turning to `COc1cc2c(cn1)OC[C@@H](Cc1ccccc1)NC(=O)C1(CC1)N(C)C(=O)[C@H](CC(C)C)N(C)C(=O)C[C@@H](C(=O)NCCc1cc(C3CC3)no1)NC2=O` [Example 648, (3′R,9′S,13′S)-3′-benzyl-N-(2-(3-cyclopropylisoxazol-5-yl)ethyl)-9′-isobutyl-17′-methoxy-7′,10′-dimethyl-5′,8′,11′,15′-tetraoxo-2′,3′,4′,5′,8′,9′,10′,11′,12′,13′,14′,15′-dodecahydro-7′H-spiro[cyclopropane-1,6′-pyrido[4,3-p][1]oxa[4,7,10,14]tetraazacycloheptadecine]-13′-carboxamide], the EC50 came to 748 nM and the Emax stood at 159%.
Take `COc1cc2c(cn1)OC[C@@H](Cc1ccccc1)NC(=O)C1(CC1)N(C)C(=O)[C@H](CC(C)C)N(C)C(=O)C[C@@H](C(=O)NCCc1noc(C3CC3)n1)NC2=O` [Example 649, (3′R,9′S,13′S)-3′-benzyl-N-(2-(5-cyclopropyl-1,2,4-oxadiazol-3-yl)ethyl)-9′-isobutyl-17′-methoxy-7′,10′-dimethyl-5′,8′,11′,15′-tetraoxo-2′,3′,4′,5′,8′,9′,10′,11′,12′,13′,14′,15′-dodecahydro-7′H-spiro[cyclopropane-1,6′-pyrido[4,3-p][1]oxa[4,7,10,14]tetraazacycloheptadecine]-13′-carboxamide]: the concentration for a half-maximal effect (EC50) is 908 nM and the Emax worked out at 149%.
The matching figures for `COc1cccc(CCNC(=O)[C@@H]2CC(=O)N(C)[C@@H](CC(C)C)C(=O)N(C)C3(CC3)C(=O)N[C@H](Cc3ccccc3)COc3cnc(OC)cc3C(=O)N2)c1` [Example 650, (3′R,9′S,13′S)-3′-benzyl-9′-isobutyl-17′-methoxy-N-(3-methoxyphenethyl)-7′,10′-dimethyl-5′,8′,11′,15′-tetraoxo-2′,3′,4′,5′,8′,9′,10′,11′,12′,13′,14′,15′-dodecahydro-7′H-spiro[cyclopropane-1,6′-pyrido[4,3-p][1]oxa[4,7,10,14]tetraazacycloheptadecine]-13′-carboxamide]: 596 nM and 214%.
In the case of `CC(C)C[C@H]1C(=O)N2CCCC[C@@H]2C(=O)N[C@H](Cc2ccccc2)COc2cccc(F)c2C(=O)N[C@H](C(=O)NCCc2ccc(-n3nccn3)cc2)CC(=O)N1C` [Example 651, (7S,11S,20R,22aR)-N-(4-(2H-1,2,3-triazol-2-yl)phenethyl)-20-benzyl-14-fluoro-7-isobutyl-8-methyl-6,9,13,22-tetraoxo-1,3,4,6,7,8,9,10,11,12,13,19,20,21,22,22a-hexadecahydro-2H-benzo[p]pyrido[2,1-f][1]oxa[4,7,10,14]tetraazacycloheptadecine-11-carboxamide], the EC50 was determined as 375 nM and the Emax is 127%.
